Where two headings read alike, the source gives them in different places.

Here are results for ten molecules from patent US9834558B2, “Substituted bridged urea analogs as sirtuin modulators” (GLAXOSMITHKLINE LLC, priority 2013, dated 2017).

For the assay, the target named is T1, SIRT1 (Homo sapiens, UniProt Q96EB6).
T1 sequence (Q96EB6 1-747): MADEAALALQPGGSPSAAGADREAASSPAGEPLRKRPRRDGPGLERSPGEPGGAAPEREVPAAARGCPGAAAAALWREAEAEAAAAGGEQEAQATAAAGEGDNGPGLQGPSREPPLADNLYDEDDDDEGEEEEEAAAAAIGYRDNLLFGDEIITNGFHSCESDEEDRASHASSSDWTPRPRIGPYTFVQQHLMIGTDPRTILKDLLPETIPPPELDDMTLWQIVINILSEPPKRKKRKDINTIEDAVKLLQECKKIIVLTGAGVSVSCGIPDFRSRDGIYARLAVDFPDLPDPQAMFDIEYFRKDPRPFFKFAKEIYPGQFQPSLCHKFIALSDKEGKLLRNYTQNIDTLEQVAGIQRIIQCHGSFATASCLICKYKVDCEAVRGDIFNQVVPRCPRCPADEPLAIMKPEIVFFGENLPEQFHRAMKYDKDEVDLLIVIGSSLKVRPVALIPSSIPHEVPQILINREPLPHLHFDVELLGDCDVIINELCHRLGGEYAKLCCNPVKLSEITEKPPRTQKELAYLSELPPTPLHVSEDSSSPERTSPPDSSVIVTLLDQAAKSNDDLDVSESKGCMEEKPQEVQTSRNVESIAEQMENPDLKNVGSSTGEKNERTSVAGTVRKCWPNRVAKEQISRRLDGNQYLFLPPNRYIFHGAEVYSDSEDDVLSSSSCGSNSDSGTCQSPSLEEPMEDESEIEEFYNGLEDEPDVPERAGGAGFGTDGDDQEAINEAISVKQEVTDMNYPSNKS
Briefly: Trp mass spectrometry assay of SIRT1 activation. In kind it is biochemical. Conditions: for TRP Activity (EC1.5): EC1.5 = concentration that results in 150% activation of SIRT1; for Emax: read-out: TRP MAX RESP (percent maximum fold activation). Summed up: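 Activation read-out: mass-spec measurement of O-acetyl-ADP-ribose or deacetylated Trp peptide versus compound-free controls, giving EC1.5 and Percent Maximum Activation. Reactions ran 25 min at 25 °C, pH 7.5, with 120 μM βNAD+, 0.5 μM acetylated p53-derived peptide and 10 nM His-tagged SIRT1.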

Setting [1] is: Trp peptide assay, maximum activity relative to control (100%).

For `O=C(Nc1cncc(F)c1)N1c2nc(-c3ccnc(C(F)(F)F)c3)ccc2N2CCC[C@H]1C2` [(9S)-N-(5-fluoropyridin-3-yl)-5-[2-(trifluoromethyl)pyridin-4-yl]-1,6,8-triazatricyclo[7.3.1.0 {2,7}]trideca-2(7),3,5-triene-8-carboxamide], the “TRP Activity (EC1.5)” value (Trp peptide assay) is on record as “A (A (EC1.5<1 μM))”. In addition, the Emax under setting [1] was over 150%.
As for `Cc1cncc(NC(=O)N2c3nc(-c4ccnc(C)c4)ccc3N3CC[C@H]2C3)c1` [(9S)-N-(5-methylpyridin-3-yl)-5-(2-methylpyridin-4-yl)-1,6,8-triazatricyclo[7.2.1.0 {2,7}]dodeca-2(7),3,5-triene-8-carboxamide], under “Trp peptide assay”, the “TRP Activity (EC1.5)” value is reported as “B (B (EC1.5 1-25 μM))”. The Emax under setting [1] is over 150%.
The matching figures for `Cc1cc(-c2ccc3c(n2)N(C(=O)Nc2cncc(C4CC4)n2)[C@H]2CCN3C2)ccn1` [(9S)-N-(6-cyclopropylpyrazin-2-yl)-5-(2-methylpyridin-4-yl)-1,6,8-triazatricyclo[7.2.1.0 {2,7}]dodeca-2(7),3,5-triene-8-carboxamide]: “A (A (EC1.5<1 μM))” and over 150%.
The matching figures for `CCOc1cncc(NC(=O)N2c3nc(-c4ccnc(C)c4)ccc3N3CC[C@H]2C3)n1` [(9S)-N-(6-ethoxypyrazin-2-yl)-5-(2-methylpyridin-4-yl)-1,6,8-triazatricyclo[7.2.1.0 {2,7}]dodeca-2(7),3,5-triene-8-carboxamide]: “A (A (EC1.5<1 μM))” and over 150%.
The matching figures for `CCc1cncc(NC(=O)N2c3nc(-c4ccnc(C)c4)ccc3N3CC[C@H]2C3)n1` [(9S)-N-(6-ethylpyrazin-2-yl)-5-(2-methylpyridin-4-yl)-1,6,8-triazatricyclo[7.2.1.0 {2,7}]dodeca-2(7),3,5-triene-8-carboxamide]: “A (A (EC1.5<1 μM))” and over 150%.
In the case of `Cc1ccc(-c2ccc3c(n2)N(C(=O)Nc2nc4ccc(F)cc4s2)[C@H]2CCN3C2)cn1` [(9S)-N-(6-fluoro-1,3-benzothiazol-2-yl)-5-(6-methylpyridin-3-yl)-1,6,8-triazatricyclo[7.2.1.0 {2,7}]dodeca-2,4,6-triene-8-carboxamide], the Emax is over 150%. For the setting “Trp peptide assay”, the “TRP Activity (EC1.5)” value was “B (B (EC1.5 1-25 μM))”.
With `Cc1cc(-c2ccc3c(n2)N(C(=O)Nc2cncc(F)n2)[C@H]2CCN3C2)ccn1` [(9S)-N-(6-fluoropyrazin-2-yl)-5-(2-methylpyridin-4-yl)-1,6,8-triazatricyclo[7.2.1.0 {2,7}]dodeca-2(7),3,5-triene-8-carboxamide], where the note is “Trp peptide assay”, the “TRP Activity (EC1.5)” value is recorded as “A (A (EC1.5<1 μM))”. Moreover, the Emax under setting [1] was over 150%.
The matching figures for `COc1cncc(NC(=O)N2c3nc(-c4ccnc(C)c4)ccc3N3CCC[C@H]2C3)n1` [(9S)-N-(6-methoxypyrazin-2-yl)-5-(2-methylpyridin-4-yl)-1,6,8-triazatricyclo[7.3.1.0 {2,7}]trideca-2(7),3,5-triene-8-carboxamide]: “A (A (EC1.5<1 μM))” and over 150%.
Take `Cc1cc(-c2ccc3c(n2)N(C(=O)Nc2cncc(C)n2)[C@H]2CCCN3C2)ccn1` [(9S)-N-(6-methylpyrazin-2-yl)-5-(2-methylpyridin-4-yl)-1,6,8-triazatricyclo[7.3.1.0 {2,7}]trideca-2(7),3,5-triene-8-carboxamide]: the “TRP Activity (EC1.5)” value (Trp peptide assay) is “B (B (EC1.5 1-25 μM))”. In addition, the Emax under setting [1] is over 150%.
The matching figures for `Cc1ccc(-c2ccc3c(n2)N(C(=O)Nc2cncc(C)n2)[C@H]2CCN3C2)cn1` [(9S)-N-(6-methylpyrazin-2-yl)-5-(6-methylpyridin-3-yl)-1,6,8-triazatricyclo[7.2.1.0 {2,7}]dodeca-2,4,6-triene-8-carboxamide]: “B (B (EC1.5 1-25 μM))” and over 150%.
